Source: PubChem BioAssay AID1117361 (Southern Research Institute, 2015)

Molecular target: Protein Tat (Human immunodeficiency virus type 1 group M subtype B (isolate HXB2)) (UniProt P04608)
Experiment: inhibitors of Tat binding to TAR RNA, dose response, counter-screen for Vif-APOBEC3G degradation inhibitor project, biochemical, fluorescence polarization, FAM-labeled TAR RNA (AID 1117361)

Protein Tat (Human immunodeficiency virus type 1 group M subtype B (isolate HXB2)), sequence (P04608 whole entry, looked up): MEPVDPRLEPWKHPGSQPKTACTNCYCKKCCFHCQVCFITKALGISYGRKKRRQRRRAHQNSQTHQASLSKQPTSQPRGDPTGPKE

Row | SMILES | IC50 [µM]
1 | CCOc1ccc2[nH]c(=O)c(CN(Cc3nnnn3Cc3ccco3)C3CCCCC3)cc2c1 | 24.9
2 | O=C(CCCN1C(=O)/C(=C\c2ccco2)SC1=S)Nc1ccc2ccccc2c1 | 48.3
3 | COc1ccccc1N1C(=O)NC(=O)/C(=C/c2ccc([N+](=O)[O-])s2)C1=O | 17.6
4 | S=c1[nH]nc(COc2ccc3c(c2)OCO3)n1-c1ccccc1 | 1.03
5 | Cc1ncc(CO)c(/C=N/NC(=O)c2cc(O)c(O)c(O)c2)c1O | 32.1
6 | O=S(=O)(O)c1cc(O)c2ccc(Nc3ccccc3)cc2c1 | 12.5
7 | CCC(=Nc1ccc(N)cc1)C1=C(O)C(C(=O)OC)C(C)(C)CC1=O (centres undefined) | 5.48
8 | O=C1Cc2cccc(=O)c(O)c2C(=O)O1 | 87.7
9 | CCCCn1c(SCC(=O)NCc2ccco2)nc2ccc(N3CCOCC3)cc2c1=O | 22.8
10 | O=C(O)c1ccc2c(c1)[C@@H]1C=CC[C@@H]1[C@H](c1ccccn1)N2 | 7.1
11 | O=C(O)c1c2c(nc3ccc(Cl)cc13)CCC2 | 13.2
12 | O=C(O)C1Nc2c(O)cccc2C2C=CCC12 (centres undefined) | 0.703
13 | CCCCC1=CC2=CC(=O)C(C)(OC(=O)C3CCCC3)C(=O)C2=CO1 (centres undefined) | 53.6
14 | CS(=O)(=O)c1ccc2c(c1)SC1=NC(=O)/C(=C/c3ccco3)C(=N)N12 | 10.4
15 | CCn1cc(CNC(=O)c2ccc(Cl)c([N+](=O)[O-])c2)c(C)n1 | 43
16 | O=C(NC1CCC(C(=O)O)CC1)OCc1ccccc1 (centres undefined) | 79.8
17 | O=C(O)C1OC(Oc2c(-c3ccc(O)c(O)c3)oc3cc(O)cc(O)c3c2=O)C(O)C(O)C1O (centres undefined) | 2.12
18 | CC1(OC(=O)C2CCCC2)C(=O)C=C2C=C(c3ccsc3)OC=C2C1=O (centres undefined) | 45.4
19 | O=C(Cc1cccs1)N/N=C/C=C/c1ccco1 | 8.22
20 | CCOc1cc(N2CCOCC2)c(OCC)cc1NC(C)C(=O)N1CCN(CC)CC1 (centres undefined) | 78.8
21 | CCC(=O)NC1=C(Cl)C(=O)C(NC(=O)CC)=C(Cl)C1=O | 79.8
22 | O=C(NN1C(=O)/C(=C/C=C/c2ccco2)SC1=S)c1ccncc1 | 2.69
23 | NS(=O)(=O)c1ccc2c(c1)C1C=CCC1C(C1CC=CCC1)N2 (centres undefined) | 9.98

Row | SMILES | IC50 [µM]
24 | CC(C)NC[C@@H](O)c1ccc(O)c(O)c1 | 5.21
25 | Oc1ccc(NCc2cccc(OCc3ccc(F)cc3)c2)cc1 | 68.7
26 | O=C(CSc1nc2ccccc2n1CCc1ccccc1)c1ccc(O)c(O)c1 | 8.81
27 | NC(=O)c1c(NC(=O)c2ccc(S(=O)(=O)N3CCOCC3)cc2)sc2c1CCCCC2 | 58.3
28 | Cc1ccccc1NC(=O)c1c(C)[nH]c(=S)c(C#N)c1-c1ccco1 | 8.91
29 | O=C(NCc1ccccn1)c1coc(=O)c(Br)c1 | 88.3
30 | NC(=O)c1cc(N)ccc1N1CCCC1 | 2.17
31 | N#C/C(=C\c1ccc([N+](=O)[O-])o1)C(=O)Nc1ccc(F)cc1 | 55.6
32 | CC1CCN(S(=O)(=O)c2ccc(C(=O)NCc3ccc4c(c3)OCO4)cc2)CC1 | 95.7
33 | CN1CCN(C2=C(Cl)C(=O)C(c3cnc(N4CCCCC4)s3)=C(Cl)C2=O)CC1 | 6.71
34 | COc1cc(/C=C2/C(=O)c3cccc([N+](=O)[O-])c3C2=O)c(Br)cc1O | 96.5
35 | O=C(NCCO)c1ccc2nc(-c3ccco3)c(-c3ccco3)nc2c1 | 7.34
36 | Cc1ccc2c(c1C)NC(C(=O)O)C1CC=CC21 (centres undefined) | 34.7
37 | O=C(Nc1nnc(C2CCCO2)s1)c1cccs1 (centres undefined) | 98.8
38 | O=C(NC(=S)Nc1cccc(S(=O)(=O)NC2=NCCC2)c1)c1cc(-c2ccco2)nc2ccccc12 | 8.04
39 | O=C(c1cc(-c2ccco2)on1)N1CCN(c2ccccc2)CC1 | 18.6
40 | Cc1ccc(Cn2c(=S)[nH]c3ccc(N4CCOCC4)cc3c2=O)o1 | 3.98
41 | O=C(CN1CCN(S(=O)(=O)c2ccc(Cl)s2)CC1)NCc1ccc(Cl)cc1 | 23.2
42 | COc1cc(OC)c2c(c1O)OC(c1ccccc1)CC2=O (centres undefined) | 65.4
43 | O=C1NC(=S)N(c2ccccc2)C(=O)/C1=C/c1ccco1 | 16.2
44 | O/C=c1\ccc2cccc3nc(C(F)(F)F)nc1c23 | 2.92
45 | O=C(Nc1ccc(Br)cn1)c1coc(=O)c(Br)c1 | 79.5
46 | CCOC(=O)CSc1nncc2ccc(OC)c(OC)c12 | 56.6

Row | SMILES | IC50 [µM]
47 | CC1=C(C#N)C(=O)N(C2CCS(=O)(=O)C2)C(=O)/C1=C\c1ccco1 (centres undefined) | 2.88
48 | CCC(=O)N1N=C(c2ccc(NS(C)(=O)=O)cc2)CC1c1ccc(C)cc1 (centres undefined) | 88.8
49 | Cc1oc(C)c2c(=O)ccc3c(c12)OC(N)=C(C#N)C3c1ccccc1 (centres undefined) | 81.9
50 | O=C(Nc1ccc2nc(-c3ccco3)c(-c3ccco3)nc2c1)N1CCCCCC1 | 3.56
51 | COc1cc(CNCCc2ccc(F)cc2)ccc1OCc1ccc(Cl)nc1 | 9.8
52 | NS(=O)(=O)c1ccc(N/N=C/c2ccc(O)c(O)c2O)c([N+](=O)[O-])c1 | 7.44
53 | O=C(N/N=C/C=C\c1ccco1)c1cccnc1 | 3.91
54 | CN(C)c1ccc(O)c2c1CC1CC3[C@@H](N(C)C)C(=O)C(C(N)=O)=C(O)[C@]3(O)C(=O)C1=C2O (some centres undefined) | 6.14
55 | CCOC(=O)c1ccc(NS(=O)(=O)c2ccc3c(c2)oc(=O)n3C)cc1 | 0.996
56 | O=[N+]([O-])c1cc(/C=N\Nc2nccs2)ccc1O | 5.68
57 | CC1CC(=O)c2c(cc3c(-c4c(O)cc(O)c5c(O)c6c(cc45)OC(C)CC6=O)c(O)cc(O)c3c2O)O1 (centres undefined) | 7.62
58 | O=C(CN1C(=O)NC2(CCCCCCC2)C1=O)NCc1cccs1 | 36.5
59 | CC(=O)Nc1cccc(Oc2ncnc3scc(-c4ccccc4)c23)c1 | 31
60 | CC1(C)Cc2nc3sc(C(=O)O)c(N)c3cc2CS1 | 28.3
61 | O=C1CC(Nc2ccc(N3CCOCC3)cc2)C(=O)N1Cc1ccccc1 (centres undefined) | 15.4
62 | CCn1c(C)nc2cc(C(=O)N/N=C/c3ccc(O)c(O)c3O)ccc21 | 15.3
63 | CCN(CC(=O)Nc1c(F)cccc1F)C(=O)CSC(=S)N1CCCC1 | 75.6
64 | O=C1NC(=O)N(c2ccccc2)C(=O)/C1=C\c1ccc([N+](=O)[O-])s1 | 10.7
65 | CCOc1cccc(=O)c2c(C)n(Cc3ccco3)c(C)c12 | 2.95
66 | O=C(O)c1cc(N2N=C(C(F)(F)F)/C(=C/C=C/c3ccco3)C2=O)ccc1Cl | 0.616
67 | Cc1cccc(NC(=S)NC(=O)/C=C/c2ccco2)c1 | 20.2
68 | CN1CCC(N(C)C(=O)COc2ccccc2-c2ccccc2)CC1 | 63.7
69 | COc1cc(CC(=O)OCC(=O)Nc2cccc([N+](=O)[O-])c2)cc(OC)c1OC | 26.6

Row | SMILES | IC50 [µM]
70 | COC(=O)c1ccccc1NC(=O)CCS(=O)(=O)c1ccc(Br)cc1 | 18.4
71 | Cc1ccc(N(CC(=O)NCCSCc2ccco2)S(=O)(=O)c2ccc(F)cc2)cc1 | 63.7
72 | O=C(O)C(Cc1ccccc1)N1C(=O)/C(=C/C=C/c2ccco2)SC1=S (centres undefined) | 1.26
73 | O=[N+]([O-])c1ccc(Sc2nc3ccccc3o2)c([N+](=O)[O-])c1 | 16.4
74 | O=S(=O)(c1ccc(OCC(O)CN2CCC(Cc3ccccc3)CC2)cc1)N1CCOCC1 (centres undefined) | 10.3
75 | Oc1ccc(N=Cc2ccc(OCc3ccccc3)cc2)cc1 | 47.5
76 | CC1CCCCC1NC(=O)COC(=O)c1c2c(nc3ccccc13)/C(=C/c1ccco1)CC2 (centres undefined) | 7.58
77 | COc1cc(OC)c2c(O)c3c(c(-c4c5c(c(O)c6c(OC)cc(OC)cc46)CO[C@@H](C)[C@H]5O)c2c1)[C@H](O)[C@H](C)OC3 | 30.8
78 | C/C(=N\Nc1ccc([N+](=O)[O-])cc1[N+](=O)[O-])c1cc2c(ccc3ccccc32)oc1=O | 15.6
79 | CCOC(=O)C1=C(N)n2c(s/c(=C/c3ccco3)c2=O)=C(C(=O)OC)C1c1ccco1 (centres undefined) | 9.78
80 | CCOC(=O)C1CCCN(C(=O)c2ccc(CNc3c(N4CCC(C)CC4)c(=O)c3=O)cc2)C1 (centres undefined) | 65.3
81 | CC(=O)c1ccc(NC(=O)CSc2nnc(-c3ccco3)c(-c3ccco3)n2)cc1 | 6.61
82 | O=C1c2ccccc2C(=O)N1/N=C/c1ccc(O)c(O)c1O | 14.7
83 | Nc1ccc2c(O)cc(S(=O)(=O)O)cc2c1 | 48
84 | c1cn2cc(CSC3CCCCC3)nc2s1 | 63.8
85 | CN(C)c1ccc2cc(S(=O)(=O)O)cc(O)c2c1 | 90
86 | Cc1cc2c(c(=O)o1)C(c1ccc([N+](=O)[O-])o1)C(C#N)=C(N)O2 (centres undefined) | 9.96
87 | CCN(CC(=O)Nc1c(C(=O)OC)[nH]c2ccccc12)c1ccc2c(c1)OCO2 | 14.3
88 | Cc1ccc(C)n1-c1ccc(C(=O)O)cc1 | 9.09
89 | c1ccc2c(c1)CCCN2Cc1nnc2n1CCCCC2 | 4.29
90 | COC(=O)c1ccc(CC(=O)c2c(C)cc(O)cc2O)o1 | 11.2
91 | NC(=O)/C(=C/c1ccco1)C(N)=S | 12
92 | COc1cccc(C2CC(c3ccccc3OC)n3nc(N)nc3N2)c1 (centres undefined) | 0.686

Row | SMILES | IC50 [µM]
93 | CCN(CC)c1ccc2c(c1)CCCN2 | 2.89
94 | O=C(Nc1ccc2nc(-c3ccco3)c(-c3ccco3)nc2c1)NC1CC1 | 1.83
95 | COC/C=C/C1=CC2=CC(=O)C(C)(OC(=O)CCC(=O)OC)C(=O)C2=CO1 (centres undefined) | 8.1
96 | Nc1ccc(N(CCO)CCO)cc1 | 9.62
97 | CC1(C)OC(=O)C(=C2CCCN2)C(=O)O1 | 0.882
98 | CCCN1C(=O)S/C(=C\c2ccc(N3CCOCC3)cc2C)C1=O | 1.92
99 | CCN(CC)C(=O)c1ccc(CS(=O)(=O)c2ccc(OC)cc2)o1 | 2.35
100 | CCC(c1nnnn1C(C)(C)CC)N(CCCO)Cc1cc2cc(C)cc(C)c2[nH]c1=O (centres undefined) | 1.88
101 | O=[N+]([O-])c1cc2oc3c(c2c(C=NCc2ccncc2)c1O)CCCC3 | 13.4
102 | CC(C)CC(=O)Nc1nnc(-c2ccco2)s1 | 53.8
103 | Cc1ccc(-n2c(-c3cc(-c4ccco4)[nH]n3)n[nH]c2=S)c(Br)c1 | 6.09
104 | CC(=O)NN1C(=O)/C(=C\c2ccc(Br)o2)SC1=S | 4.82
105 | CC1C/C(=C/c2ccco2)C(=O)/C(=C/c2ccco2)C1 (centres undefined) | 3.92
106 | CC(C)(C)NC(=O)C(c1ccncc1)N(C(=O)CNC(=O)c1ccco1)c1ccc2c(c1)OCO2 (centres undefined) | 44.1
107 | Cc1ccc(C2C(C#N)=C(N)Oc3c2oc(CO)cc3=O)o1 (centres undefined) | 5.77
108 | Cc1cc(C)cc(Nc2ccc(C(=O)O)cc2N)c1 | 47.1
109 | Cc1ccccc1Cc1c(C)nc2c(C(=O)NCc3ccc4c(c3)OCO4)cnn2c1C | 1.06
110 | O=[N+]([O-])c1ccccc1S(=O)(=O)NC1CCCC1 | 45
111 | CCCCN1C(=O)/C(=C/C=C/c2ccco2)C(=O)NC1=S | 21.7
112 | Cc1ccccc1NC(=O)CSc1nnc(-c2ccco2)c(-c2ccco2)n1 | 2.73
113 | N#C/C(=C/c1ccc(Br)o1)C(N)=S | 16
114 | COc1ccc2c(c1)n([O-])c1c([n+]2=O)CCC1 | 52.1
